We go through three compounds from patent US7888394B2, “Synthesis, polymorphs, and pharmaceutical formulation of FAAH inhibitors” (N.V. Organon, priority 2006, dated 2011).

A short description of data set [1]: Particle size determination of KDS-4103 polymorphs (Malvern Mastersizer 2000 Hydro S, dispersed in hexane). Particulars: 1 minute sonication (47 kHz), 10,000 sweeps. Format: physicochemical. On the procedure: “Effective particle size,” as used herein refers to and is determined on the basis of the volume weight average particle size as measured by conventional particle size measuring techniques well known to those skilled in the art. Such techniques include, for example, sedimentation field flow fractionation, photon correlation spectroscopy, light scattering, laser diffraction and disc centrifugation. For the purposes of the compositions, formulations and methods described herein, effective particle size is the volume mass average particle size as determined using light scattering methods, e.g. Horiba LA-950. For example, an effective particle size of 5.9 μm means that 50% of the particles by weight are less than 5.9 μm and 50% of the particles by weight are greater than 5.9 μm.

A short description of data set [2]: Oral bioavailability determination of KDS-4103 polymorphs: plasma concentrations after oral administration of suspensions to rats. Conditions: oral gavage, 100 mg/mL suspension at 1 ml/kg. The format is in vivo.
Test in data set [3]: as above
Format: in vivo. Conditions: for [KDS-4103] plasma concentration: oral gavage, 100 mg/mL suspension at 1 ml/kg. As for the experimental part:
Animals were sacrificed at 30, 60 and 90 minutes post-dose in each group. Collection of K3EDTA was acheived via cardiac puncture.

The test system of data set [4] is fatty acid amide hydrolase (FAAH). Conditions: cited from earlier work.

Structures are written as SMILES.

Turning to `NC(=O)c1cccc(-c2cccc(OC(=O)NC3CCCCC3)c2)c1` [KDS-4103 polymorph from acetonitrile], in data set [1] (listed as KDS-4103 from acetonitrile), the “average effective average particle size” value is reported as “about 5.9 μm”. This compound also returned a concentration at 0 min in data set [2] (rat, plasma, po, 100 mg/kg, [KDS-4103] plasma concentration) of 0 ng/mL. The “[KDS-4103] plasma concentration” value in data set [3] (time 30 minutes post-dose) came to 196.06 ng/mL; in data set [3] (time 60 minutes post-dose), 58.95 ng/mL; in data set [3] (time 90 minutes post-dose), 105.36 ng/mL. The “levels of the compound in circulation compared to the polymorph obtained from EtOH” value in data set [3] (oral suspension) was “increased levels of the compound in circulation”. Also, the “bioavailability of the suspension” value in data set [3] (oral suspension, compared to polymorph from ethanol) is reported as “increased bioavailability”.

Take `NC(=O)c1cccc(-c2cccc(OC(=O)NC3CCCCC3)c2)c1` [KDS-4103 polymorph from ethanol]: the “average effective average particle size” value in data set [1] (listed as KDS-4103 from ethanol) is “about 13.9 μm”. The “[KDS-4103] plasma concentration” value is 0.00 ng/mL in data set [2] (time 0 minutes), 9.62 ng/mL in data set [3] (time 30 minutes post-dose), 12.60 ng/mL in data set [3] (time 60 minutes post-dose) and 10.74 ng/mL in data set [3] (time 90 minutes post-dose).

On to `NC(=O)c1cccc(-c2cccc(OC(=O)NC3CCCCC3)c2)c1` [KDS-4103], for which, in data set [4], the “inhibition of FAAH activity” value is “potent and selective inhibitor of FAAH activity”.
